One test addresses T1, 5HT2C receptors (Homo sapiens, UniProt P28335).
T1 sequence (P28335 33-458): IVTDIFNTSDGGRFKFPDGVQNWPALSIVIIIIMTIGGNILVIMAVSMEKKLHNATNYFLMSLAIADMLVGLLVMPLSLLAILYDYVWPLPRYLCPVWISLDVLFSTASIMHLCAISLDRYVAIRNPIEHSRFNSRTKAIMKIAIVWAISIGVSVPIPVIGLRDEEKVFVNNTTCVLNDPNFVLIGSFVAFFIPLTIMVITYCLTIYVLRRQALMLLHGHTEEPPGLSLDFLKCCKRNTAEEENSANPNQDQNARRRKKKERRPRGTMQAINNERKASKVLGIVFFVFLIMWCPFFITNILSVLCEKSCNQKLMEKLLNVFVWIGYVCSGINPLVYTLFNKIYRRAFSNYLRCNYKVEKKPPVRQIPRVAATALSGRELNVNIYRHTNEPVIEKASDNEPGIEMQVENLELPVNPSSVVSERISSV
Briefly: Human 5-HT2C functional high throughput screening assay in CHO-K1 cells (calcium flux). The test is classed as cell-based. More on the design: expressed in transfected cells; host or cells: CHO-K1 cells. The conditions noted are these: for EC50: CHO-K1 cells, calcium flux; for Emax: CHO-K1, 5-HT2C, maximum functional response as percentage relative to the effect of serotonin. The method, boiled down: (§1)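 Agonism is measured as intracellular calcium increase in receptor-overexpressing CHO-K1 cells, read by FLIPR at 25 °C. Responses are expressed relative to serotonin, with EC50 and Emax derived from a 4-parameter logistic curve over 6 concentrations starting at 10 μM.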

The next test concerns the target T2, 5HT2B receptors (Homo sapiens, UniProt P41595).
T2 construct: expressed in transfected cells; host or cells: CHO-K1 cells
Briefly: Human 5-HT2B functional high throughput screening assay in CHO-K1 cells (calcium flux). The conditions noted are these: for EC50: CHO-K1 cells, calcium flux. The test is classed as cell-based. The essentials: as §1

Where [1] appears, read: 5-HT2C agonist activity, read-out: EC50.
Setting [2] is: 5-HT2B agonist activity, read-out: EC50.
Where [3] appears, read: 5-HT2B, maximum functional response as percentage relative to the effect of serotonin.

A word on the EC50: it is the concentration at which the effect is half-maximal. Broadly, the Emax is the maximal effect, on the per cent scale that the assay sets.

The structures appear in SMILES notation. Like-named read-outs stand apart in the source and are kept apart here.

T2 sequence (P41595 whole entry): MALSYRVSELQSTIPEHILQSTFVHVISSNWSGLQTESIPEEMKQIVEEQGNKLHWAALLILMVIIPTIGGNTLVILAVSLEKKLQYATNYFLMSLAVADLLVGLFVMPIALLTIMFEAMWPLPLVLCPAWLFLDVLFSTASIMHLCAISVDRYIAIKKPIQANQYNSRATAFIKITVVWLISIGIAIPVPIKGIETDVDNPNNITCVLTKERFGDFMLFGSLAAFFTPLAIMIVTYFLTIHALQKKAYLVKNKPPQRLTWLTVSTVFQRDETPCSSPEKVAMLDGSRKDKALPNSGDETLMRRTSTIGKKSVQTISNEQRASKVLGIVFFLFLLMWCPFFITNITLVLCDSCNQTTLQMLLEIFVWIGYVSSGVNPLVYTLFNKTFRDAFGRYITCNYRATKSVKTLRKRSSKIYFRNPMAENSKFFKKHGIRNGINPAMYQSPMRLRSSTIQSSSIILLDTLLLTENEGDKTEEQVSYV

With `CC(=O)c1cccc(-c2ccc3c(c2)C(=O)NC[C@@H]2CN(C)C[C@@H]32)c1` (relative stereo) [Example 237, Trans-8-(3-acetylphenyl)-2-methyl-1,2,3,3a,4,5-hexahydrobenzo[c]pyrrolo[3,4-e]azepin-6(10bH)-one], the values for the concentration giving a half-maximal response (EC50) at 5HT2C receptors (setting [1]) and on 5HT2B receptors (setting [2]) were 3 nM and above 10000 nM, respectively. Besides, the figures for the maximum response (Emax) at 5HT2C receptors (read-out: Emax) and at 5HT2B receptors (setting [3]) were above 120% and “inactive”, respectively.
Take `COc1cc(-c2ccc3c(c2)C(=O)NC[C@@H]2CN(C)C[C@@H]32)ccc1F` (relative stereo) [Example 320, Trans-8-(4-fluoro-3-methoxyphenyl)-2-methyl-2,3,3a,4,5,10b-hexahydropyrrolo[3,4-d][2]benzazepin-6(1H)-one]: the results for the concentration giving a half-maximal response (EC50) on 5HT2C receptors (setting [1]) and on 5HT2B receptors (setting [2]) were 7 nM and above 10000 nM, respectively. In addition, the results for the Emax on 5HT2C receptors (read-out: Emax) and on 5HT2B receptors (setting [3]) were 90% and “inactive”, respectively.
Regarding `Clc1cccc2c1OCC[C@H]1CNC[C@H]21` (relative stereo) [Example 376, Trans-7-chloro-2,3,3a,4,5,10b-hexahydro-1H-[1]benzoxepino[4,5-c]pyrrole], the Emax at 5HT2C receptors was 90%; on 5HT2B receptors (CHO-K1), 70%. Moreover, the EC50 was found to be 0.2 nM at 5HT2C receptors (EC50, 5-HT2C agonist activity) and 200 nM at 5HT2B receptors (EC50, 5-HT2B agonist activity).
In the same order, the values of `O=C1NC[C@@H]2CNC[C@H]2c2ccc(OCc3cccc(F)c3)cc21` (relative stereo) [Example 146, Trans-8-(3-fluorobenzyloxy)-1,2,3,3a,4,5-hexahydrobenzo[e]pyrrolo[3,4-c]azepin-6(10bH)-one] are above 120%, 15%, 0.8 nM and 1000 nM.
Turning to `c1ccc(CN2C[C@H]3CCOc4ncccc4[C@@H]3C2)cc1` (relative stereo) [Example 262, Trans-2-benzyl-2,3,3a,4,5,10b-hexahydro-1H-pyrrolo[3′,4′:4,5]oxepino[2,3-b]pyridine], the EC50 on 5HT2C receptors (setting [1]) was 2000 nM; on 5HT2B receptors (setting [2]) it was above 10000 nM. Further, the maximum response (Emax) on 5HT2C receptors is 90%; on 5HT2B receptors (setting [3]) it was “inactive”.
As to `O=C1NC[C@@H]2CNC[C@H]2c2c1sc1ccccc21` (relative stereo) [Example 99, Trans-2,3,3a,4,5,11c-hexahydro[1]benzothieno[2,3-e]pyrrolo[3,4-e]azepin-6(1H)-one], the Emax was above 120% at 5HT2C receptors and 90% on 5HT2B receptors (CHO-K1). In addition, the concentration giving a half-maximal response (EC50) on 5HT2C receptors (EC50, 5-HT2C agonist activity) was 20 nM; at 5HT2B receptors (EC50, 5-HT2B agonist activity) it was 1000 nM.
In the case of `COc1c(C)cc(-c2ccc3c(c2)C(=O)NC[C@@H]2CN(C)C[C@@H]32)cc1C` (relative stereo) [Example 317, Trans-8-(4-methoxy-3,5-dimethylphenyl)-2-methyl-2,3,3a,4,5,10b-hexahydropyrrolo[3,4-d][2]benzazepin-6(1H)-one], the concentration for a half-maximal effect (EC50) on 5HT2C receptors (setting [1]) is 70 nM; at 5HT2B receptors (setting [2]), above 10000 nM. For the same compound, the Emax on 5HT2C receptors (read-out: Emax) is 75%; on 5HT2B receptors (setting [3]), “inactive”.
As to `COC(=O)c1ccc2c(c1)C(=O)NC[C@@H]1CN(C)C[C@@H]21` (relative stereo) [Example 88, Trans-methyl 2-methyl-6-oxo-1,2,3,3a,4,5,6,10b-octahydrobenzo[e]pyrrolo[3,4-c]azepine-8-carboxylate], the values for the EC50 at 5HT2C receptors (setting [1]) and at 5HT2B receptors (setting [2]) were 500 nM and above 10000 nM, respectively. Besides, the Emax at 5HT2C receptors (read-out: Emax) was above 120%; on 5HT2B receptors (setting [3]), “inactive”.
For the compound `COc1ccccc1S(=O)(=O)N1Cc2cccnc2[C@@H]2CNC[C@H]2C1` (relative stereo) [Example 354, Trans-6-[(2-methoxyphenyl)sulfonyl]-5,6,7,7a,8,9,10,10a-octahydropyrido[3,2-c]pyrrolo[3,4-e]azepine], the EC50 at 5HT2C receptors (setting [1]) turned out to be 300 nM; on 5HT2B receptors (setting [2]) it was 200 nM. The maximum response (Emax) was found to be 80% at 5HT2C receptors (read-out: Emax) and 95% at 5HT2B receptors (CHO-K1, 5-HT2B, maximum functional response as percentage relative to the effect of serotonin, read-out: Emax).
As for `Brc1cccc2c1OCC[C@H]1CNC[C@H]21` (relative stereo) [Example 383, Trans-7-bromo-2,3,3a,4,5,10b-hexahydro-1H-[1]benzoxepino[4,5-c]pyrrole], the maximal effect (Emax) was found to be 105% on 5HT2C receptors and 100% on 5HT2B receptors (CHO-K1). Moreover, the concentration for a half-maximal effect (EC50) was 0.04 nM at 5HT2C receptors (EC50, 5-HT2C agonist activity) and 6 nM on 5HT2B receptors (EC50, 5-HT2B agonist activity).
For `Cc1ccccc1S(=O)(=O)N1Cc2cccnc2[C@@H]2CNC[C@H]2C1` (relative stereo) [Example 341, Trans-6-[(2-methylphenyl)sulfonyl]-5,6,7,7a,8,9,10,10a-octahydropyrido[3,2-c]pyrrolo[3,4-e]azepine] the same measures were 90%, 65%, 90 nM and 300 nM.
Consider `CN1C[C@H]2CNC(=O)c3c(-c4ccccc4)cccc3[C@@H]2C1` (relative stereo) [Example 114, Trans-2-methyl-7-phenyl-1,2,3,3a,4,5-hexahydrobenzo[c]pyrrolo[3,4-e]azepin-6(10bH)-one], for which the figures for the concentration giving a half-maximal response (EC50) on 5HT2C receptors (setting [1]) and on 5HT2B receptors (setting [2]) were 5000 nM and above 10000 nM, respectively. For the same compound, the maximum response (Emax) is 80% on 5HT2C receptors (read-out: Emax) and “inactive” at 5HT2B receptors (setting [3]).
`CN1CC[C@@H]2CNC[C@H]2c2ccccc21` (relative stereo) [Example 327, Trans-6-methyl-1,2,3,3a,4,5,6,10b-octahydropyrrolo[3,4-d][1]benzazepine]: the Emax at 5HT2C receptors came to 95%; at 5HT2B receptors (CHO-K1), 75%. The half-maximal effective concentration (EC50) at 5HT2C receptors (EC50, 5-HT2C agonist activity) is 10 nM; on 5HT2B receptors (EC50, 5-HT2B agonist activity) it was 200 nM.
Regarding `CN1C[C@@H]2CNC(=O)c3cc(OCc4ccccc4F)ccc3[C@H]2C1` [Example 207, (3aS,10bS)-8-(2-Fluorobenzyloxy)-2-methyl-1,2,3,3a,4,5-hexahydrobenzo[e]pyrrolo[3,4-c]azepin-6(10bH)-one], the EC50 on 5HT2C receptors (setting [1]) is 1 nM; on 5HT2B receptors (setting [2]), above 10000 nM. For the same compound, the Emax at 5HT2C receptors (read-out: Emax) is above 120%; at 5HT2B receptors (setting [3]), “inactive”.
For the compound `CN1C[C@H]2CNC(=O)c3cc(OCC4CCCCC4)ccc3[C@@H]2C1` (relative stereo) [Example 176, Trans-8-(cyclohexylmethoxy)-2-methyl-1,2,3,3a,4,5-hexahydrobenzo[e]pyrrolo[3,4-c]azepin-6(10bH)-one], the EC50 at 5HT2C receptors (setting [1]) is 200 nM; on 5HT2B receptors (setting [2]) it was above 10000 nM. Further, the maximal response (Emax) is above 120% at 5HT2C receptors and “inactive” on 5HT2B receptors (setting [3]).
Regarding `Clc1cc(Br)c2c(c1)[C@@H]1CNC[C@@H]1CCO2` (relative stereo) [Example 393, Cis-7-bromo-9-chloro-2,3,3a,4,5,10b-hexahydro-1H-[1]benzoxepino[4,5-c]pyrrole], the figures for the maximum response (Emax) on 5HT2C receptors and at 5HT2B receptors (CHO-K1) were 60% and 20%, respectively. Moreover, the half-maximal effective concentration (EC50) at 5HT2C receptors (EC50, 5-HT2C agonist activity) was 200 nM; on 5HT2B receptors (EC50, 5-HT2B agonist activity) it was 100 nM.
As to `C[C@H](O)c1cccc(-c2ccc3c(c2)C(=O)NC[C@H]2CN(C)C[C@H]32)c1` [Example 248, (3aS,10bS)-8-(3-((S)-1-Hydroxyethyl)phenyl)-2-methyl-1,2,3,3a,4,5-hexahydrobenzo[e]pyrrolo[3,4-c]azepin-6(10bH)-one], the EC50 at 5HT2C receptors (setting [1]) is 2 nM; at 5HT2B receptors (setting [2]), above 10000 nM. The maximal response (Emax) was 100% on 5HT2C receptors (read-out: Emax) and “inactive” on 5HT2B receptors (setting [3]).
`Cc1cc2c(cc1F)C(=O)NC[C@@H]1CNC[C@H]21` (relative stereo) [Example 279, Cis-8-fluoro-9-methyl-1,2,3,3a,4,5-hexahydrobenzo[c]pyrrolo[3,4-e]azepin-6(10bH)-one]: the maximum response (Emax) at 5HT2C receptors is above 120%; on 5HT2B receptors (CHO-K1) it was 90%. For the same compound, the concentration for a half-maximal effect (EC50) at 5HT2C receptors (EC50, 5-HT2C agonist activity) was found to be 60 nM; at 5HT2B receptors (EC50, 5-HT2B agonist activity) it was 900 nM.
In the case of `O=C1NC[C@@H]2CNC[C@H]2c2ccc(C3=CCOCC3)cc21` (relative stereo) [Example 241, Trans-8-(3,6-dihydro-2H-pyran-4-yl)-1,2,3,3a,4,5-hexahydrobenzo[c]pyrrolo[3,4-e]azepin-6(10bH)-one], the concentration for a half-maximal effect (EC50) at 5HT2C receptors (setting [1]) is 7 nM; on 5HT2B receptors (setting [2]), above 10000 nM. Also, the Emax on 5HT2C receptors (read-out: Emax) is above 120%; on 5HT2B receptors (setting [3]), “inactive”.
In the same order, the values of `CC(C)(C)c1ccc(S(=O)(=O)N2Cc3cccnc3[C@@H]3CNC[C@H]3C2)cc1` (relative stereo) [Example 344, Trans-6-[(4-tert-butylphenyl)sulfonyl]-5,6,7,7a,8,9,10,10a-octahydropyrido[3,2-c]pyrrolo[3,4-e]azepine] are 90 nM, above 10000 nM, 85% and “inactive”.
For the compound `COc1cc(OC)c2c(c1)C(=O)NC[C@@H]1CNC[C@@H]21` (relative stereo) [Example 100, Trans-8,10-dimethoxy-1,2,3,3a,4,5-hexahydrobenzo[c]pyrrolo[3,4-e]azepin-6(10bH)-one], the maximal response (Emax) was above 120% at 5HT2C receptors and 70% at 5HT2B receptors (CHO-K1). For the same compound, the EC50 was 3 nM on 5HT2C receptors (EC50, 5-HT2C agonist activity) and 900 nM at 5HT2B receptors (EC50, 5-HT2B agonist activity).

The record behind these values is patent publication US8846951B2 (AbbVie Inc., priority 2009, dated 2014).
